Reference: US9474790B2, “Stable, protracted GLP-1/glucagon receptor co-agonists for medical use” (Novo Nordisk A/S, priority 2013, dated 2016)
Numbered stars: 1 amine (or outer) side, 2 acyl side, 3 side chain; on linkers, the order of the positions; unused ones are H or OH. Square brackets hold non-standard residues; d marks the D form. Side chains are listed from the residue outwards. Peptide text beside a SMILES is read from it. * marks the point of attachment. C18 diacid = O=C(O)CCCCCCCCCCCCCCCCC(=O)*; γGlu = O=C(O)[C@H](CCC(=O)[*:2])N[*:1]; Ac4c = NC1(C(=O)O)CCC1; AEEA = NCCOCCOCC(=O)O; Aib = CC(C)(N)C(=O)O

These molecules were tested against T1, human glucagon receptor (Homo sapiens, UniProt P47871) (assay: Glucagon receptor potency, CRE luciferase reporter gene assay in BHK cells). Conditions: BHK cells expressing human glucagon receptor, read-out: EC50 GlucR.
T1 construct: expressed in transfected cells; host or cells: BHK cells (parent BHK570, CRE luciferase clone BHK/KZ10-20-48), clone pLJ6'-4-25
T1 sequence (P47871 26-477): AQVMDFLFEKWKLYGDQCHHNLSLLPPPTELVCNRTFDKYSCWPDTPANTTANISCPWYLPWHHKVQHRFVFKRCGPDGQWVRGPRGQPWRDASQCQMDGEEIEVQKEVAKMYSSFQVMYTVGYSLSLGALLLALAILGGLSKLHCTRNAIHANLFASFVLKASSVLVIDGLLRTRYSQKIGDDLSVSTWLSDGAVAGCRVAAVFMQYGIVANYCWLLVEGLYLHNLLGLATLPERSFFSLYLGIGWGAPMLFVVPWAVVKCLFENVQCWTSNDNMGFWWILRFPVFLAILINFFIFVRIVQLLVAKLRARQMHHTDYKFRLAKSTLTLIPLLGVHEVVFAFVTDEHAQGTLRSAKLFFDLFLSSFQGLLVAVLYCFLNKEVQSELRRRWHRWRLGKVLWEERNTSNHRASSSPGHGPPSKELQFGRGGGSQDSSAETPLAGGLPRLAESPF
Type: cell-based
Method in brief: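 EC50 (pM) comes from a four-parameter fit of luciferase luminescence after 3 h at 37 °C with compound at final 1×10EE-13–1×10EE-6 M. Cells: BHK570-derived line carrying human glucagon receptor plus CRE-luciferase, 5×10EE3/well, in assay medium with 2% ovalbumin, 0.2% Pluronic F-68.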
Work on CC(C)C[C@H](NC(=O)[C@H](Cc1c[nH]c2ccccc12)NC(=O)[C@H](CCC(N)=O)NC(=O)[C@@H](NC(=O)[C@H](Cc1ccccc1)NC(=O)[C@H](CCC(=O)O)NC(=O)[C@H](CCCNC(=N)N)NC(=O)[C@H](C)NC(=O)[C@H](CCCNC(=N)N)NC(=O)[C@H](CCCNC(=N)N)NC(=O)C(C)(C)NC(=O)[C@H](CC(=O)O)NC(=O)[C@H](CC(C)C)NC(=O)[C@H](Cc1ccc(O)cc1)NC(=O)[C@H](CCCCN)NC(=O)[C@H](CO)NC(=O)[C@H](CC(C)C)NC(=O)[C@H](CC(=O)O)NC(=O)[C@H](CO)NC(=O)[C@@H](NC(=O)[C@H](Cc1ccccc1)NC(=O)[C@@H](NC(=O)CNC(=O)[C@H](CCC(N)=O)NC(=O)C(C)(C)NC(=O)[C@@H](N)Cc1c[nH]cn1)[C@@H](C)O)[C@@H](C)O)C(C)C)C(=O)N[C@@H](CC(C)C)C(=O)N[C@@H](CCCCNC(=O)CC[C@H](NC(=O)CC[C@H](NC(=O)COCCOCCNC(=O)COCCOCCNC(=O)CC[C@H](NC(=O)CCCCCCCCCCCCCCCCC(=O)O)C(=O)O)C(=O)O)C(=O)O)C(=O)N[C@H](C(N)=O)[C@@H](C)O [Example 51, N^ε28-[(4S)-4-carboxy-4-[[(4S)-4-carboxy-4-[[2-[2-[2-[[2-[2-[2-[[(4S)-4-carboxy-4-(17-carboxyheptadecanoylamino)butanoyl]amino]ethoxy]ethoxy]acetyl]amino]ethoxy]ethoxy]acetyl]amino]butanoyl]amino]butanoyl]-[Aib2,Leu10,Aib16,Arg20,Glu21,Leu27,Lys28]-Glucagon amide] (H-H[Aib]QGTFTSDLSKYLD[Aib]RRAREFVQWLLK([γGlu-γGlu-AEEA-AEEA-γGlu-C18 diacid])T-NH2; N-terminus assumed) yielded an EC50 of 0.004 nM. For CC(C)C[C@H](NC(=O)[C@H](Cc1ccc(O)cc1)NC(=O)[C@H](CCCCN)NC(=O)[C@H](CO)NC(=O)[C@H](CC(C)C)NC(=O)[C@H](CC(=O)O)NC(=O)[C@H](CO)NC(=O)[C@@H](NC(=O)[C@H](Cc1ccccc1)NC(=O)[C@@H](NC(=O)CNC(=O)[C@H](CCC(N)=O)NC(=O)C(C)(C)NC(=O)[C@@H](N)Cc1c[nH]cn1)[C@@H](C)O)[C@@H](C)O)C(=O)N[C@@H](CCC(=O)O)C(=O)N[C@@H](CO)C(=O)N[C@@H](CCCCN)C(=O)N[C@@H](CCCNC(=N)N)C(=O)N[C@@H](C)C(=O)N[C@@H](CCCNC(=N)N)C(=O)N[C@@H](CCC(=O)O)C(=O)N[C@@H](Cc1ccccc1)C(=O)N[C@H](C(=O)N[C@@H](CCC(N)=O)C(=O)N[C@@H](Cc1c[nH]c2ccccc12)C(=O)N[C@@H](CC(C)C)C(=O)N[C@@H](CC(C)C)C(=O)N[C@@H](CCCCNC(=O)CC[C@H](NC(=O)CC[C@H](NC(=O)[C@H](CO)NC(=O)[C@H](CCC(=O)O)NC(=O)[C@H](CO)NC(=O)CC[C@H](NC(=O)CC[C@H](NC(=O)CCCCCCCCCCCCCCCCC(=O)O)C(=O)O)C(=O)O)C(=O)O)C(=O)O)C(=O)N[C@H](C(N)=O)[C@@H](C)O)C(C)C [Example 52] (H-H[Aib]QGTFTSDLSKYLESKRAREFVQWLLK([γGlu-γGlu-Ser-Glu-Ser-γGlu-γGlu-C18 diacid])T-NH2; N-terminus assumed), the EC50 was 0.016 nM. Molecule CC(C)C[C@H](NC(=O)[C@H](Cc1ccc(O)cc1)NC(=O)[C@H](CCCCN)NC(=O)[C@H](CO)NC(=O)[C@H](CC(C)C)NC(=O)[C@H](CC(=O)O)NC(=O)[C@H](CO)NC(=O)[C@@H](NC(=O)[C@H](Cc1ccccc1)NC(=O)[C@@H](NC(=O)CNC(=O)[C@H](CCC(N)=O)NC(=O)C(C)(C)NC(=O)[C@@H](N)Cc1c[nH]cn1)[C@@H](C)O)[C@@H](C)O)C(=O)N[C@@H](CCC(=O)O)C(=O)N[C@@H](CO)C(=O)N[C@@H](CCCCN)C(=O)N[C@@H](CCCNC(=N)N)C(=O)N[C@@H](C)C(=O)N[C@@H](CCCNC(=N)N)C(=O)N[C@@H](CCC(=O)O)C(=O)N[C@@H](Cc1ccccc1)C(=O)N[C@H](C(=O)N[C@@H](CCC(N)=O)C(=O)N[C@@H](Cc1c[nH]c2ccccc12)C(=O)N[C@@H](CC(C)C)C(=O)N[C@@H](CC(C)C)C(=O)N[C@@H](CCCCNC(=O)CC[C@H](NC(=O)CC[C@H](NC(=O)[C@H](CO)NC(=O)[C@H](CCC(=O)O)NC(=O)[C@H](CO)NC(=O)CC[C@H](NC(=O)CC[C@H](NC(=O)CCCCCCCCCCCCCCCCC(=O)O)C(=O)O)C(=O)O)C(=O)O)C(=O)O)C(=O)N[C@H](C(N)=O)[C@@H](C)O)C(C)C [Example 54, N^ε28-[(4S)-4-carboxy-4-[[(4S)-4-carboxy-4-[[(2S)-2-[[(2S)-4-carboxy-2-[[(2S)-2-[[(4S)-4-carboxy-4-[[(4S)-4-carboxy-4-(17-carboxyheptadecanoylamino)butanoyl]amino]butanoyl]amino]-3-hydroxypropanoyl]amino]butanoyl]amino]-3-hydroxypropanoyl]amino]butanoyl]amino]butanoyl]-[Aib2,Leu10,Glu15,Lys17,Arg20,Glu21,Leu27,Lys28]-Glucagon amide] (H-H[Aib]QGTFTSDLSKYLESKRAREFVQWLLK([γGlu-γGlu-Ser-Glu-Ser-γGlu-γGlu-C18 diacid])T-NH2; N-terminus assumed) has an EC50 of 0.0127 nM. Molecule CC(C)C[C@H](NC(=O)[C@H](Cc1ccc(O)cc1)NC(=O)[C@H](CCCNC(=N)N)NC(=O)[C@H](CO)NC(=O)[C@H](CC(C)C)NC(=O)[C@H](CC(=O)O)NC(=O)[C@H](CO)NC(=O)[C@@H](NC(=O)[C@H](Cc1ccccc1)NC(=O)[C@@H](NC(=O)CNC(=O)[C@H](CCC(N)=O)NC(=O)C1(NC(=O)[C@@H](N)Cc2c[nH]cn2)CCC1)[C@@H](C)O)[C@@H](C)O)C(=O)N[C@@H](CCC(=O)O)C(=O)N[C@@H](CO)C(=O)N[C@@H](CCCNC(=N)N)C(=O)N[C@@H](CCCNC(=N)N)C(=O)N[C@@H](C)C(=O)N[C@@H](CCCNC(=N)N)C(=O)N[C@@H](CCC(=O)O)C(=O)N[C@@H](Cc1ccccc1)C(=O)N[C@H](C(=O)N[C@@H](CCC(N)=O)C(=O)N[C@@H](Cc1c[nH]c2ccccc12)C(=O)N[C@@H](CC(C)C)C(=O)N[C@@H](CC(C)C)C(=O)N[C@@H](CCCCNC(=O)CC[C@H](NC(=O)CC[C@H](NC(=O)COCCOCCNC(=O)COCCOCCNC(=O)CC[C@H](NC(=O)CC[C@H](NC(=O)CCCCCCCCCCCCCCCCC(=O)O)C(=O)O)C(=O)O)C(=O)O)C(=O)O)C(=O)N[C@H](C(N)=O)[C@@H](C)O)C(C)C [Example 59, N^ε28-[(4S)-4-carboxy-4-[[(4S)-4-carboxy-4-[[2-[2-[2-[[2-[2-[2-[[(4S)-4-carboxy-4-[[(4S)-4-carboxy-4-(17-carboxyheptadecanoylamino)butanoyl]amino]butanoyl]amino]ethoxy]ethoxy]acetyl]amino]ethoxy]ethoxy]acetyl]amino]butanoyl]amino]butanoyl]-[Acb2,Leu10,Arg12,Glu15,Arg20,Glu21,Leu27,Lys28]-Glucagon amide] (H-H[Ac4c]QGTFTSDLSRYLESRRAREFVQWLLK([γGlu-γGlu-AEEA-AEEA-γGlu-γGlu-C18 diacid])T-NH2; N-terminus assumed) has an EC50 of 0.017 nM. CC(C)C[C@H](NC(=O)[C@H](Cc1ccc(O)cc1)NC(=O)[C@H](CCCCN)NC(=O)[C@H](CO)NC(=O)[C@H](CC(C)C)NC(=O)[C@H](CC(=O)O)NC(=O)[C@H](CO)NC(=O)[C@@H](NC(=O)[C@H](Cc1ccccc1)NC(=O)[C@@H](NC(=O)CNC(=O)[C@H](CCC(N)=O)NC(=O)C(C)(C)NC(=O)[C@@H](N)Cc1c[nH]cn1)[C@@H](C)O)[C@@H](C)O)C(=O)N[C@@H](CCC(=O)O)C(=O)N[C@@H](CO)C(=O)N[C@@H](CCCNC(=N)N)C(=O)N[C@@H](CCCNC(=N)N)C(=O)N[C@@H](C)C(=O)N[C@@H](CCCNC(=N)N)C(=O)N[C@@H](CCC(=O)O)C(=O)N[C@@H](Cc1ccccc1)C(=O)N[C@H](C(=O)N[C@@H](CCC(N)=O)C(=O)N[C@@H](Cc1c[nH]c2ccccc12)C(=O)N[C@@H](CC(C)C)C(=O)N[C@@H](CC(C)C)C(=O)N[C@@H](CCCCNC(=O)CC[C@H](NC(=O)CC[C@H](NC(=O)COCCOCCNC(=O)COCCOCCNC(=O)CC[C@H](NC(=O)CC[C@H](NC(=O)CCCCCCCCCCCCCCCCC(=O)O)C(=O)O)C(=O)O)C(=O)O)C(=O)O)C(=O)N[C@H](C(N)=O)[C@@H](C)O)C(C)C [Example 60, N^ε28-[(4S)-4-carboxy-4-[[(4S)-4-carboxy-4-[[2-[2-[2-[[2-[2-[2-[[(4S)-4-carboxy-4-[[(4S)-4-carboxy-4-(17-carboxyheptadecanoylamino)butanoyl]amino]butanoyl]amino]ethoxy]ethoxy]acetyl]amino]ethoxy]ethoxy]acetyl]amino]butanoyl]amino]butanoyl]-[Aib2,Leu10,Glu15,Arg20,Glu21,Leu27,Lys28]-Glucagon amide] (H-H[Aib]QGTFTSDLSKYLESRRAREFVQWLLK([γGlu-γGlu-AEEA-AEEA-γGlu-γGlu-C18 diacid])T-NH2; N-terminus assumed) gave an EC50 of 0.054 nM. CC(C)C[C@H](NC(=O)[C@H](Cc1ccc(O)cc1)NC(=O)[C@H](CCCNC(=N)N)NC(=O)[C@H](CO)NC(=O)[C@H](CC(C)C)NC(=O)[C@H](CC(=O)O)NC(=O)[C@H](CO)NC(=O)[C@@H](NC(=O)[C@H](Cc1ccccc1)NC(=O)[C@@H](NC(=O)CNC(=O)[C@H](CCC(N)=O)NC(=O)C(C)(C)NC(=O)[C@@H](N)Cc1c[nH]cn1)[C@@H](C)O)[C@@H](C)O)C(=O)N[C@@H](CC(=O)O)C(=O)N[C@@H](C)C(=O)N[C@@H](CCCNC(=N)N)C(=O)N[C@@H](CCCNC(=N)N)C(=O)N[C@@H](C)C(=O)N[C@@H](CCCNC(=N)N)C(=O)N[C@@H](CC(=O)O)C(=O)N[C@@H](Cc1ccccc1)C(=O)N[C@H](C(=O)N[C@@H](CCC(N)=O)C(=O)N[C@@H](Cc1c[nH]c2ccccc12)C(=O)N[C@@H](CC(C)C)C(=O)N[C@@H](CC(C)C)C(=O)N[C@@H](CCCCNC(=O)CC[C@H](NC(=O)CC[C@H](NC(=O)CC[C@H](NC(=O)CCCCCCCCCCCCCCCCC(=O)O)C(=O)O)C(=O)O)C(=O)O)C(=O)N[C@H](C(N)=O)[C@@H](C)O)C(C)C [Example 62, N^ε28-[(4S)-4-carboxy-4-[[(4S)-4-carboxy-4-[[(4S)-4-carboxy-4-(17-carboxyheptadecanoylamino)butanoyl]amino]butanoyl]amino]butanoyl]-[Aib2,Leu10,Arg12,Ala16,Arg20,Leu27,Lys28]-Glucagon amide] (H-H[Aib]QGTFTSDLSRYLDARRARDFVQWLLK([γGlu-γGlu-γGlu-C18 diacid])T-NH2; N-terminus assumed) was tested, and the EC50 was 0.01 nM.
